{"source": "paper PMC12187869", "about": "“Transport of the uremic toxin symmetric dimethylarginine (SDMA) by renal transport proteins” (Amino Acids, 2025)", "type_in_all_cases": "cell-based", "key": {"CAT1 [1]": {"target": "T1, CAT1 (Homo sapiens, UniProt P30825)", "T1 construct": "gene SLC7A1; HEK293 cells stably expressing human CAT1", "T1 sequence (P30825 whole entry)": "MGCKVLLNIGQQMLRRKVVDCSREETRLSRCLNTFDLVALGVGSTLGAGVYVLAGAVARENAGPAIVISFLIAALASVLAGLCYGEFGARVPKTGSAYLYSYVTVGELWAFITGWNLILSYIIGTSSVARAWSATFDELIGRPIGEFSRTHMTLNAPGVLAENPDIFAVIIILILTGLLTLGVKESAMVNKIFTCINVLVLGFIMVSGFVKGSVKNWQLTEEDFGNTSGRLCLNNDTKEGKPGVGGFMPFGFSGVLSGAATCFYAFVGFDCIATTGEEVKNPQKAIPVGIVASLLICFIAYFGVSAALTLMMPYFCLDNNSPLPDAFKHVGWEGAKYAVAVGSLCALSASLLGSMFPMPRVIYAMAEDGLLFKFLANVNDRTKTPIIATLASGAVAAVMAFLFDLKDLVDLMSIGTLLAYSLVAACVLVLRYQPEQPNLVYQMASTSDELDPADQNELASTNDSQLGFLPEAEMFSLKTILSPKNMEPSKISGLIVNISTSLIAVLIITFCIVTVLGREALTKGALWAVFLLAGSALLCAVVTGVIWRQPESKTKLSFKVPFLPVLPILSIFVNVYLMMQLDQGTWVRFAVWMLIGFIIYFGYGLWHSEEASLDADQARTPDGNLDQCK", "assay": "inhibition of [3H]SDMA uptake in HEK-CAT1 cells at […]"}, "OATP4C1 [2]": {"target": "T2, OATP4C1 (Homo sapiens, UniProt Q6ZQN7)", "T2 construct": "gene SLCO4C1; HEK293 cells stably expressing human OATP4C1", "T2 sequence (Q6ZQN7 1-724)": "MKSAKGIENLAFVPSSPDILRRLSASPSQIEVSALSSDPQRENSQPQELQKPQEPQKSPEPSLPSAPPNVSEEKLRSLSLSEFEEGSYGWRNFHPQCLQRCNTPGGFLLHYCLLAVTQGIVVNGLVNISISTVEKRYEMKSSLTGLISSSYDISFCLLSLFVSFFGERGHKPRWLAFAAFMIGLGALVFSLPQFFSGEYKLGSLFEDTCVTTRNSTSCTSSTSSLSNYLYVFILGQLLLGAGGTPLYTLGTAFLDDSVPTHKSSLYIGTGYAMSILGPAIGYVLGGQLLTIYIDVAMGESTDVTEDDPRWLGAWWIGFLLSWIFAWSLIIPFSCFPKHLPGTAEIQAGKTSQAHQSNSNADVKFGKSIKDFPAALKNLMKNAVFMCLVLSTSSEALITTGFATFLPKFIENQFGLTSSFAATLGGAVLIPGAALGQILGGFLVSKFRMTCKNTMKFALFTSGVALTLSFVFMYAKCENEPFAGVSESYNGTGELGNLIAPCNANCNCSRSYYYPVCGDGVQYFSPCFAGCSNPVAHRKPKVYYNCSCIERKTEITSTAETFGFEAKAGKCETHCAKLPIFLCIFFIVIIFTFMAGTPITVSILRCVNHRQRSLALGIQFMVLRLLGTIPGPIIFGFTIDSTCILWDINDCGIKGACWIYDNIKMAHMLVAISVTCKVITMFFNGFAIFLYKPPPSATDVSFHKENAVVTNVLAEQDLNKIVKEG", "assay": "inhibition of [3H]SDMA uptake in HEK-OATP4C1 cells"}, "CAT1 [3]": {"target": "T1, CAT1", "assay": "inhibition of [3H]SDMA uptake in HEK-CAT1 cells"}, "OATP4C1 [4]": {"target": "T2, OATP4C1", "assay": "inhibition of [3H]SDMA uptake in HEK-OATP4C1 cells at […]"}, "OCT2": {"target": "T3, OCT2 (Homo sapiens, UniProt O15244)", "T3 construct": "gene SLC22A2; HEK293 cells stably expressing human OCT2", "T3 sequence (O15244 1-555)": "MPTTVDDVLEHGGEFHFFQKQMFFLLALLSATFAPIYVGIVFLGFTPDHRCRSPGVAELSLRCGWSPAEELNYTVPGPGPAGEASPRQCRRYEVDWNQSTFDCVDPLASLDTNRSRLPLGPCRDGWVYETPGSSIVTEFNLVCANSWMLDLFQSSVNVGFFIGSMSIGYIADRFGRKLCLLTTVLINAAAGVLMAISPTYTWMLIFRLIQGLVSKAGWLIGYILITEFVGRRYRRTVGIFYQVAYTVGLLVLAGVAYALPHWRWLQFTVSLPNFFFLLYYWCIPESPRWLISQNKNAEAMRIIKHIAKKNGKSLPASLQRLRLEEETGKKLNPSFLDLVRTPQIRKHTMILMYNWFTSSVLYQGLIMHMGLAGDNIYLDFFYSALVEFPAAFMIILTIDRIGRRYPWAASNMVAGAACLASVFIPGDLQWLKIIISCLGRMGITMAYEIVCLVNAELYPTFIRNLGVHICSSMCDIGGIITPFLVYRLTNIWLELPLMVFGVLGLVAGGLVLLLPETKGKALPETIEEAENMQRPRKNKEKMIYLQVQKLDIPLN", "assay": "[3H]SDMA uptake in HEK-OCT2 cells; no saturation up to […]"}, "MATE1": {"target": "T4, MATE1 (Homo sapiens, UniProt Q96FL8)", "T4 construct": "gene SLC47A1; HEK293 cells stably expressing human MATE1", "T4 sequence (Q96FL8 1-570)": "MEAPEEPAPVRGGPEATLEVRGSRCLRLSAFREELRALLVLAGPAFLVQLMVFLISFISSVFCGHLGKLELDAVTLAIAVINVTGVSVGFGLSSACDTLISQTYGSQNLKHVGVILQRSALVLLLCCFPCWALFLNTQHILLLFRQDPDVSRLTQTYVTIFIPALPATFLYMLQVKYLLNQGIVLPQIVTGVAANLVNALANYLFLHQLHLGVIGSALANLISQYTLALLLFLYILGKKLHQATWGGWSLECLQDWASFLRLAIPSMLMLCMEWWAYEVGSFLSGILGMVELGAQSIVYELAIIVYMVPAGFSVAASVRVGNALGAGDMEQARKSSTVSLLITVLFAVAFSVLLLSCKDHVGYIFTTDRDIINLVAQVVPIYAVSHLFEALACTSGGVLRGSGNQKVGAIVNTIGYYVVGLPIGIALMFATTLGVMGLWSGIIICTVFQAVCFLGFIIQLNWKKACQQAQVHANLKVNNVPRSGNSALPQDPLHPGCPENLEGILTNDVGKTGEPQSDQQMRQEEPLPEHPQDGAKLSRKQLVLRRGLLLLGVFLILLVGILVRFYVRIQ", "assay": "[3H]SDMA uptake kinetics (Km) in HEK-MATE1 cells", "details": "read-out: Km in μM"}}}
{"smiles": "CN(C)C(=N)NCCC[C@H](N)C(=O)O", "note": "[ADMA]", "values": [{"measurement": "inhibition of [3H]SDMA uptake in HEK-CAT1 cells at 50 and 500 μM", "setting": "CAT1 [1]", "value": "all influenced SDMA transport, thereby competing with SDMA for CAT1- or OATP4C1-mediated uptake"}]}
{"smiles": "N=C(N)NCCC[C@H](N)C(=O)O", "note": "[L-arginine]", "values": [{"measurement": "IC50", "setting": "OATP4C1 [2]", "value": 28.8, "unit": "µM"}, {"measurement": "IC50", "setting": "CAT1 [3]", "value": 280, "unit": "µM"}]}
{"smiles": "N=C(N)NCCCC[C@H](N)C(=O)O", "note": "[L-homoarginine]", "values": [{"measurement": "inhibition of [3H]SDMA uptake in HEK-OATP4C1 cells at 50 and 500 μM", "setting": "OATP4C1 [4]", "value": "all influenced SDMA transport, thereby competing with SDMA for CAT1- or OATP4C1-mediated uptake"}]}
{"smiles": "CN=C(NC)NCCC[C@H](N)C(=O)O", "note": "[symmetric dimethylarginine]", "values": [{"measurement": "[3H]SDMA uptake in HEK-OCT2 cells; no saturation up to 4 000 μM", "setting": "OCT2", "value": "significant uptake was observed for CAT1-, OATP4C1-, OCT2-, and MATE1-mediated transport"}, {"measurement": "Km", "setting": "MATE1", "value": 1970, "unit": "µM"}]}
